Positions of bridges follow the written chain, without caps; N, C: chain ends. Residues, ends and D or L forms follow the SMILES beside them.
Assays:
[1] = biological target: T1, GC-C receptors (Homo sapiens, UniProt P25092); test: Cyclic GMP stimulation assay in CaCo-2 monolayers (cGMP ELISA); type: cell-based; settings: for effect of PDE inhibitor on stimulation of cGMP production by SP-304: PDE inhibitor in combination with SP-304, 30 minutes
T1 construct: host or cells: CaCo-2 human colon carcinoma cells, differentiated monolayers grown for 16 days
T1 sequence (P25092 24-1073): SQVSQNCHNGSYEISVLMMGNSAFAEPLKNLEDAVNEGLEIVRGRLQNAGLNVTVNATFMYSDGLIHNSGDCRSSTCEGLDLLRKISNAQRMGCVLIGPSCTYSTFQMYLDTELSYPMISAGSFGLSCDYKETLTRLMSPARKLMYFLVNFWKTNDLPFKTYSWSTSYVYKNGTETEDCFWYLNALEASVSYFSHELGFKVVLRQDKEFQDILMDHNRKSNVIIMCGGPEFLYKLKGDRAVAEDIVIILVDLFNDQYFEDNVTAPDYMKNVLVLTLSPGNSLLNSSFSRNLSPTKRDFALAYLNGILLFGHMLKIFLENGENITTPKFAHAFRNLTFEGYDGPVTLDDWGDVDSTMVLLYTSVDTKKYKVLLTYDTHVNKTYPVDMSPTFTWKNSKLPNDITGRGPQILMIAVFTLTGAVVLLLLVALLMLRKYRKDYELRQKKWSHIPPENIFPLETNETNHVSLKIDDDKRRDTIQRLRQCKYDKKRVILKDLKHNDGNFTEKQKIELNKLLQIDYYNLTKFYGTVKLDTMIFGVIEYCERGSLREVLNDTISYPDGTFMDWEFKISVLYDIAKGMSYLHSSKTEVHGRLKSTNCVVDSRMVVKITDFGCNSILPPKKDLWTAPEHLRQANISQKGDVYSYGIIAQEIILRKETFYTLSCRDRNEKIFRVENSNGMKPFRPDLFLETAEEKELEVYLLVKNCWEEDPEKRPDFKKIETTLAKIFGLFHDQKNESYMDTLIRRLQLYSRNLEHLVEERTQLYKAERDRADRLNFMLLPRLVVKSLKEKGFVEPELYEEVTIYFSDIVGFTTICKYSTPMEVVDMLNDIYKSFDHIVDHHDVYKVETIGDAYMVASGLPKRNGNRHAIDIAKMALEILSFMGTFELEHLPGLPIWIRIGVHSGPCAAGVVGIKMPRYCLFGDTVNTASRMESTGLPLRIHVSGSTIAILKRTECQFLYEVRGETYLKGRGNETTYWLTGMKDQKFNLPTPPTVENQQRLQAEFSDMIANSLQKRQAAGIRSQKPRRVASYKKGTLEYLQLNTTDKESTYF
Protocol: (§1) CaCo-2, human colon carcinoma cells, were obtained from American Type Culture Collection (ATCC) and cultured in DMEM medium containing 10% fetal bovine serum, 1% penicillin-streptomycin, 2 mM L-glutamine, 1% non-essential-amino acids. Cells were fed fresh medium every third day and grown for 16-21 days to form completely differentiated monolayer. Fully differentiated CaCo-2 cells are known to express high density of GC-C receptors.
Biological activity of the GCRA peptides was assayed as previously reported (5). Briefly, 16 days grown monolayers of CaCo-2 cells in 24-well plates were washed twice with 250 μl of DMEM containing 50 mM HEPES (pH 7.4), pre-incubated at 37° C. for 10 min with 250 μl of DMEM containing 50 mM HEPES (pH 7.4) and 1 mM isobutylmethylxanthine (IBMX), followed by incubation with GCRA peptides (0.1 nM to 10 μM) for 30 min. The medium was aspirated, and the reaction was terminated by the addition of 3% perchloric acid. Following centrifugation, and neutralization with 0.1 N NaOH, the supernatant was used directly for measurements of cGMP using an ELISA kit (Caymen Chemical, Ann Arbor, Mich.)
Monolayers were treated […] of serum free DMEM for 30 minutes with either SP-304 alone or in combination with phosphodiesterase inhibitors such as, 3-isobutyl-1-methylxanthine (IBMX), sulindac sulfone (SS) and zaprinast (ZAP). After the incubation, monolayer were lysed with 250 μL of 3% perchloric acid. The lysate was neutralized with 0.1 N NaOH and used for ELISA to determine the concentration of cGMP. The assay procedure was essentially the same as described (5). […] Since CaCo-2 cells overexpress phosphodiesterases (PDE), GC-C agonists are used in combination with PDE inhibitors to measure the actual stimulatory effect of GC-C agonists.

[2] = system: CaCo-2 cells; test: ^3H-taurocholate (bile acid) absorption by CaCo-2 monolayer; type: cell-based, human; settings: for absorption of ^3H-taurocholate (kinetics, FIG. 4): 16-day CaCo-2 monolayers, incubation up to 60 minutes, average of three determinations; for absorption of ^3H-taurocholate (kinetics, FIG. 4) / absorption of ^3H-taurocholate (FIG. 5): 30 min pre-incubation; for absorption of ^3H-taurocholate (FIG. 5): 20-day CaCo-2 cells, 60 minutes with 1 uCi ^3H-taurocholate, quadruplets
Protocol: as §1
Phosphatidyl choline was dissolved in ethanol to make 50 mM stock solution. Calculated volume of the stock solution of phosphatidyl choline was mixed with 3H-taurocholate in a plastic tube and dried under argon gas at 80° C. The dried material was dissolved in transport buffer to get the final concentration of phosphatidyl choline (0.5 mM) and of 3H-taurocholate 10 μCi/mL.
CaCo-2 cells were grown in 24-well plates for 16 days to allow complete monolayer formation and cell differentiation. Completely differentiated monolayers were then pre-incubated with 250 μL of the transport buffer (HEPES 25 mM, NaCl 120 mM, KCl 5.4 mM, CaCl2 1.8 mM and MgSO4, pH 7.5) containing either SP-304 alone or in combination with PDE inhibitors such as IBMX, SS and ZAP. The monolayers were pre-incubated with transport buffer containing either of the following: vehicle (control), 1 mM 8-bromo-cGMP, 500 μM SS, 500 μM ZAP, 1 μM SP-304, 0.1 μM SP-304+500 μM SS and 1 μM SP-304+500 μM ZAP. After the indicated pre-incubation time, 50 μL, of ^3H-taurocholate (1 μCi) cocktail was added and cells were incubated for an additional 60 minutes, washed three times with ice cold PBS. Cells were lysed with 0.5 N NaOH for 4 hours and radioactivity in the lysate was counted in a scintillation counter.
16-day grown monolayers of CaCo-2 cells in 24-well plates were pre-incubated with transport buffer containing the compounds as indicated in the figure for 30 minutes. After the pre-incubation, 1 μCi of ^3H-taurocholate cocktail was added in each well and cells were further incubated for 60 minutes. Cells were washed three times with ice cold PBS and lysed with 0.5 N NaOH and lysates were counted for radioactivity in a scintillation counter. Results are expressed as an average of three determinations. Results on the x-axis were plotted in logarithmic scale.
After the pre-incubation, 1 μCi of ^3H-taurocholate cocktail was added in each well and cells were further incubated for 60 minutes. Cells were washed three times with ice cold PBS and lysed with 0.5 N NaOH and lysates were counted for radioactivity in a scintillation counter. This experiment was run in quadruplets and results are expressed as mean±SD.
The procedure used in this experiment was essentially the same except that a lower concentration of ZAP (250 μM) in combination experiments with SP-304.

| Compound | effect of PDE inhibitor on stimulation of cGMP production by SP-304 [1] | absorption of ^3H-taurocholate (kinetics, FIG. 4) [2] | absorption of ^3H-taurocholate (FIG. 5) [2] | further results |
| --- | --- | --- | --- | --- |
| CC(C)C[C@H](NC(=O)[C@@H]1CSSC[C@@H]2NC(=O)[C@H](CC(C)C)NC(=O)[C@H](CCC(=O)O)NC(=O)[C@@H](NC(=O)[C@H](CCC(=O)O)NC(=O)[C@H](CC(=O)O)NC(=O)[C@@H](N)CC(N)=O)CSSC[C@H](NC(=O)[C@H](C)NC(=O)[C@H](C(C)C)NC(=O)[C@H](CC(N)=O)NC(=O)[C@H](C(C)C)NC2=O)C(=O)N[C@@H]([C@@H](C)O)C(=O)NCC(=O)N1)C(=O)O [SP-304, Asn^1-Asp^2-Glu^3-Cys^4-Glu^5-Leu^6-Cys^7-Val^8-Asn^9-Val^10-Ala^11-Cys^12-Thr^13-Gly^14-Cys^15-Leu^16] (H-NDECELCVNVACTGCL-OH; disulfide 4-12, 7-15; N-terminus assumed) | – | inhibited | inhibited | cGMP production by CaCo-2 cells in response to stimulation ([1]; serum free DMEM, 30 minutes, cGMP by ELISA): produced cGMP in response to stimulation; inhibition in absorption of ^3H-taurocholate (FIG. 6), SP-304 alone ([2]; SP-304 0.1 uM alone): did not produce much inhibition; inhibition of ^3H-taurocholate absorption (FIG. 6), SP-304 in combination with ZAP ([2]; SP-304 0.1 uM in combination with ZAP 250 uM, compared with SP-304 alone): greater effect on inhibition |
| CC1=C(CC(=O)O)c2cc(F)ccc2/C1=C\c1ccc(S(C)(=O)=O)cc1 [SS, sulindac sulfone] | synergistic effects | – | – | – |
| Nc1nc2c(nc(Br)n2[C@@H]2O[C@@H]3COP(=O)(O)O[C@H]3[C@H]2O)c(=O)[nH]1 [8-Br-cGMP, 8-bromo-cGMP] | – | inhibited | inhibited | – |

Further lines, with some results ahead:

| effect of PDE inhibitor on stimulation of cGMP production by SP-304 [1] | Compound | absorption of ^3H-taurocholate (kinetics, FIG. 4) [2] | absorption of ^3H-taurocholate (FIG. 5) [2] | further results |
| --- | --- | --- | --- | --- |
| synergistic effects | CC(C)Cn1c(=O)n(C)c(=O)c2[nH]cnc21 [IBMX, 3-isobutyl-1-methylxanthine] | – | – | – |
| synergistic effects | CCCOc1ccccc1-c1nc2nn[nH]c2c(=O)[nH]1 [ZAP, zaprinast] | – | – | cGMP production among the PDE inhibitors combined with SP-304 ([1]; comparison of IBMX, SS and ZAP): maximum production of cGMP |

— patent US9814752B2, “Agonists of guanylate cyclase useful for the treatment of hypercholesterolemia, atherosclerosis, coronary heart disease, gallstone, obesity and other cardiovascular diseases” (SYNERGY PHARMACEUTICALS, INC., priority 2007, dated 2017)
